The source of these data is patent publication US6608111B1, “Method for treating or preventing prostatic conditions” (Southern Illinois University Office of Research, …, priority 1998, dated 2003).

The test system of assay [1] is dialyzed LDL. Description: Oxidized LDL lag time assay (antioxidant capacity). The arrangement: species or system human. To be noted: 3 μM Cu2SO4, drugs at 10^−4, 10^−5, 10^−6, and 10^−7 M. Here is the method: Experiments were carried out on dialyzed LDL collected from four fasted persons. The LDL was used within 10 days of dialysis. The oxidizing agent was 3 μM […]; phosphate buffered saline was used to control pH, and all drugs were dissolved in ethanol; final concentrations of each drug in the assays were 10^−4, 10^−5, 10^−6, and 10^−7 M. The combined results are shown in FIG. 6.

Assay [2] deals with male and female Wistar rats. Put plainly: Experiment 2: chronic treatment of male and female rats, 5-6 weeks. The assay is classed as in vivo, rat. To be noted: for Food intake: n = 5; for testosterone: compared to the vehicle. The procedure:
Twenty-five male and 25 female Wistar rats, 7-8 weeks of age, were randomly assigned to groups of five animals, respectively, for treatment with vehicle only (V), estradiol (E), (±)-Z-BDDA, (+)-Z-BDDA, or (−)-Z-BDDA. Each animal in group V received a daily 0.1 cc injection of a 10% ethanol-90% olive oil solution; the other treatments received their respective compound as a daily 0.1 cc injection, e.g., 2.5 μg of compound/g of body weight, in a 10% ethanol-90% olive oil solution. A temperature of 21° C. and an artificial 12-h light-dark cycle were maintained in the animal room. All animals were maintained on standard chow in powdered form, the males for five weeks and the females for six weeks, then sacrificed after an overnight fast under i.p. pentobarbital anesthesia (50 mg/kg). Animal weight and food intake were measured weekly during the study and subsequent FER values were determined. During sacrifice, blood was collected (via cardiac puncture) for glucose, luteinizing hormone, prolactin and testosterone measurements. The amounts of luteinizing hormone, prolactin and testosterone were measured to help elucidate the target tissue of the respective compounds in male and female rats. Immediately following sacrifice the fat pads and reproductive organs were removed and weighed.
Experiments 1 and 2 employed a randomized design. All data were analyzed by one-way analysis of variance (ANOVA,)and post-hoc comparisons were made with Tukey pairwise comparisons test. Significance was confirmed at p≦0.05 (SYSTAT 7.0, SPSS INC., 1997), and all values are reported as means±standard error of the mean.

For assay [3], the system named is female mice. To be noted: E2 5 g/animal/day, (±)-Z-BDDA 5, 50, and 500 g/animal/day, versus control group; cited from earlier work.
For assay [4], the system named is estrogen receptors ERα and ERβ. To be noted: direct receptor binding assays or dose-response profiles of estrogen-responsive reporter genes in cell culture; cited from earlier work. (A reporter such as luciferase makes a cellular process visible.)
Where [5] appears, read: female rats (uterus), 2.5 ug/g of body weight daily, six weeks, mean ± SEM.
Setting [6] is: female rats, 2.5 ug/g of body weight daily, six weeks, mean ± SEM.
The mark [7] stands for this setting: male rats (testis), 2.5 ug/g of body weight daily, five weeks, mean ± SEM.
The mark [8] stands for this setting: male rats, 2.5 ug/g of body weight daily, five weeks, mean ± SEM.

As for `C[C@]12CCC3c4ccc(O)cc4CCC3[C@@H]1CCC2O` (single isomer, unassigned; (+)) [estradiol, (+)-17β-estradiol, reference compound], the “antioxidant activity (shift in lag time of LDL oxidation)” value in assay [1] is listed as “very little antioxidant activity”. In addition, the “Uterus/testis weight (g)” value in assay [2] (setting [5]) is 4.83 ± 1.30^1 g. In assay [2] (setting [6]), the “Blood glucose” value came out at 100.80 ± 10.22 mg/dL, the “FER (food efficiency ratio)” value amounted to 0.039 ± 0.004 and the “Food intake” value is 699.6 ± 33.7 g. Moreover, in assay [2] (setting [7]), the “Uterus/testis weight (g)” value is listed as 0.74 ± 0.04^1 g. In addition, in assay [2] (male rats, 2.5 μg/g daily), the testosterone entry is given as “significant (p<0.05) testosterone suppression”. Further, in assay [2] (setting [8]), the “Blood glucose” value amounted to 108.00 ± 10.90 mg/dL, the “FER (food efficiency ratio)” value is 0.00 ± 0.01^1, the “Prostate weight” value amounted to 0.06 ± 0.02 g and the “Food intake” value is on record as 590.4 ± 47.7 g. The “body weight (percent weight change)” value in assay [2] (male rats, both experiments (FIGS. 2 and 3), 2.5 μg/g daily) is on record as “dramatic reduction in body weight”. The “rate of weight gain” value in assay [3] is “increased”.

Regarding `CC[C@H]1c2ccc3cc(O)ccc3c2CC[C@@]1(C)C(=O)O` [(+)-Z-BDDA, (+)-Z-bisdehydrodoisynolic acid], the “antioxidant activity (shift in lag time of LDL oxidation)” value in assay [1] is given as “significant antioxidant activity”. Further, the “binding affinity for estrogen receptors” value in assay [4] is “even lower than that of the (−) enantiomer”. In addition, in assay [2] (setting [5]), the “Uterus/testis weight (g)” value is given as 4.02 ± 0.91^1 g. In assay [2] (setting [6]), the “Blood glucose” value worked out at 89.60 ± 6.15 mg/dL, the “FER (food efficiency ratio)” value is given as 0.026 ± 0.008^1 and the “Food intake” value came to 693.6 ± 72.3 g. The “Uterus/testis weight (g)” value in assay [2] (setting [7]) is 0.61 ± 0.02^1 g. Moreover, in assay [2] (male rats, 2.5 μg/g daily), the testosterone entry is on record as “significant (p<0.05) testosterone suppression”. In assay [2] (setting [8]), the “Blood glucose (mg/dl)” value is 94.00 ± 10.18^1 mg/dl, the “FER (food efficiency ratio)” value is on record as −0.02 ± 0.01^1, the “Prostate weight (g)” value is reported as 0.02 ± 0.00^1 g and the “Food intake” value is 676.0 ± 33.2 g.
